According to article PMC9611758, “Bioactive Platinum(IV) Complexes Incorporating Halogenated Phenylacetates” (Molecules, 2022):
Read-outs that look alike come from different tables or passages of the source.

Legend:
[1] = parameters: method as in earlier work; conditions: heterocyclic ligand; cited from earlier work
[2] = test system: MCF-7 breast; parameters: method as in PMID 36142383; conditions: MTT assay, 72 h; cited from earlier work
[3] = test system: U87 glioblastoma; parameters: method as in PMID 36142383; conditions: MTT assay, 72 h; cited from earlier work
[4] = test system: HT29 colon; parameters: method as in PMID 36142383; conditions: MTT assay, 72 h; cited from earlier work
[5] = test system: BE2-C neuroblastoma; parameters: method as in PMID 36142383; conditions: MTT assay, 72 h; cited from earlier work
[6] = test system: Du145 prostate; parameters: method as in PMID 36142383; conditions: MTT assay, 72 h; cited from earlier work
[7] = test system: MIA pancreas; parameters: method as in PMID 36142383; conditions: MTT assay, 72 h; cited from earlier work
[8] = test system: ADDP-resistant ovarian variant; parameters: method as in PMID 36142383; conditions: MTT assay, 72 h; cited from earlier work
[9] = test system: H460 lung; parameters: method as in PMID 36142383; conditions: MTT assay, 72 h; cited from earlier work
[10] = test system: non-tumour derived MCF10A breast line; parameters: method as in PMID 36142383; conditions: MTT assay, 72 h; cited from earlier work
[11] = test system: A431 skin; parameters: method as in PMID 36142383; conditions: MTT assay, 72 h; cited from earlier work
[12] = test system: A2780 ovarian; parameters: method as in PMID 36142383; conditions: MTT assay, 72 h; cited from earlier work
[13] = test system: SJ-G2 glioblastoma; parameters: method as in PMID 36142383; conditions: MTT assay, 72 h; cited from earlier work
[14] = test system: HT29 colon; experiment: MTT growth inhibition assay, HT29; assay type: cell-based, human
[15] = test system: ADDP-resistant ovarian variant; experiment: MTT growth inhibition assay, ADDP; assay type: cell-based, human
[16] = test system: murine leukaemia cell line (L1210); conditions: cited from earlier work
[17] = test system: HT29 colon cells; parameters: method as in PMID 36142383; conditions: cited from earlier work
[18] = test system: murine leukaemia cell line (L1210); experiment: Cytotoxicity in L1210 (literature); assay type: cell-based; conditions: SS more cytotoxic than RR
From the text: Chirality is crucial to the biological activity of the studied complexes.

[19] = test system: panel of cell lines; parameters: method as in PMID 36142383; conditions: average over the cell lines tested, MTT assay, 72 h; cited from earlier work
[20] = test system: PC3 (prostate carcinoma) tumour xenografts; parameters: method as in PMID 18997969; conditions: PC3 xenograft mice; cited from earlier work
[21] = test system: panel of cell lines; experiment: MTT growth inhibition assay, whole panel of cell lines; assay type: cell-based, human; conditions: platinum(IV) precursor less cytotoxic than platinum(II) precursor, all cell lines
[22] = test system: Du145 prostate; experiment: MTT growth inhibition assay, Du145; assay type: cell-based, human; conditions: Du145 prostate, ratio of GI50 values
[23] = test system: peritoneal carcinomatosis; parameters: method as in PMID 20535526; conditions: cited from earlier work
[24] = test system: HT29 colon cells; experiment: ROS detection assay (DCFH-DA); assay type: cell-based, human; conditions: HT29 colon cells, treated at GI50 concentration (TBHP positive control 20 μM)

| Structure (SMILES) | GI50 [2] [nM] | GI50 [3] [nM] | GI50 [4] [nM] | GI50 [5] [nM] | GI50 [6] [nM] | GI50 [7] [nM] | GI50 [8] [nM] | GI50 [9] [nM] | GI50 [10] [nM] | GI50 [11] [nM] | GI50 [12] [nM] | GI50 [13] [nM] | GI50 [16] [nM] | ROS production 24 h [17] [RFU] | ROS production 48 h [17] [RFU] | ROS production 72 h [17] [RFU] | GI50 [19] [nM] | also measured |
| --- | --- | --- | --- | --- | --- | --- | --- | --- | --- | --- | --- | --- | --- | --- | --- | --- | --- | --- |
| c1cnc2c(c1)ccc1cccnc12 [phen, 1,10-phenanthroline] |  |  |  |  |  |  |  |  |  |  |  |  |  |  |  |  |  | pKa [1]: 4.9 |
| N.N.O=C([O-])C1(C(=O)[O-])CCC1.[Pt+2] [Carboplatin, cis-diammine(1,1-cyclobutanedicarboxylato) platinum(II)] | > 50000 | > 50000 | > 50000 | 19000 | 15000 | > 50000 | > 50000 | 14000 | > 50000 | 24000 | 9200 ± 2900 | 5700 ± 200 |  |  |  |  |  |  |
| C1=C[N]2[Pt+2][N]3C=CC=c4ccc(c2c43)=C1.N[C@H]1CCCC[C@@H]1N [PHENSS, [Pt^II(phen)(SS-DACH)]^2+] | 1500 ± 500 | 980 ± 270 | 160 ± 45 | 380 ± 46 | 100 ± 38 | 200 ± 57 | 190 ± 47 | 360 ± 35 | 300 ± 58 | 480 ± 170 | 230 ± 30 | 330 ± 66 | 130 | 174 ± 2 | 172 ± 9 | 176 ± 7 | 434 ± 110 | fold more reactive compared to cisplatin [14]: 70 fold; fold more potent than cisplatin [15]: ~150 fold; fold difference in cytotoxicity between RR-DACH and SS-DACH enantiomer [18]: ~12 fold; mean tumour weight in relation to the control group [20]: comparable decrease in mean tumour weight; toxicity / mortality [20]: no obvious signs of toxicity |
| C1=C[N]2[Pt+2][N]3C=CC=c4ccc(c2c43)=C1.N[C@@H]1CCCC[C@H]1N [PHENRR] |  |  |  |  |  |  |  |  |  |  |  |  | 1500 |  |  |  |  |  |
| Cc1c(C)c2c3c4c1=CC=C[N]4[Pt+2]([OH])([OH])[N]3C=CC=2.N[C@H]1CCCC[C@@H]1N [56MESS(IV)(OH)2] | 480 ± 140 | 190 ± 23 | 36 ± 7 | 240 ± 22 | 15 ± 2.6 | 43 ± 2.5 | 170 ± 120 | 190 ± 150 | 61 ± 7 | 120 ± 22 | 59 ± 7 | 210 ± 45 |  | 259 ± 3 | 356 ± 11 | 438 ± 7 | 151 ± 50 | fold difference in average GI50 versus corresponding platinum(II) precursor [21]: 4 fold |
| Cc1c(C)c2cccnc2c2ncccc12.N[C@H]1CCCC[C@@H]1N.[Pt] [Complex 56MESS, [Pt^II(5,6-Me2phen)(SS-DACH)]^2+] | 93 ± 44 | 35 ± 6.4 | 10 ± 1.6 | 59 ± 4 | 4.6 ± 0.4 | 13 ± 2 | 13 ± 2 | 21 ± 2 | 16 ± 1 | 29 ± 1 | 76 ± 57 | 66 ± 22 | 9 | 240 ± 5 | 218 ± 3 | 255 ± 4 | 36 ± 10 | fold increase in potency over carboplatin [22]: ~3300 fold; fold increase in potency over oxaliplatin [22]: 630 fold; fold more reactive compared to cisplatin ([14]; HT29 colon, ratio of GI50 values): 1100 fold; fold more potent than cisplatin ([15]; ADDP-resistant ovarian variant, ratio of GI50 values): 2150 fold; nephrotoxicity ([23]; at pharmacological doses): induced nephrotoxicity; tumour suppression response ([23]; intravenous and intraperitoneal treatment): did not elicit a tumour suppression response; fold difference in cytotoxicity between RR-DACH and SS-DACH enantiomer [18]: 51 fold |
| Cc1c(C)c2c3c4c1=CC=C[N]4[Pt+2][N]3C=CC=2.N[C@@H]1CCCC[C@H]1N [Complex 56MERR] |  |  |  |  |  |  |  |  |  |  |  |  | 460 |  |  |  |  |  |
| N.N.[Cl][Pt][Cl] [Cisplatin, Cis-diamminedichloroplatinum(II)] | 6500 ± 800 | 3800 ± 1100 | 11300 | 1900 ± 200 | 1200 ± 100 | 7500 ± 1300 | 28000 | 900 ± 200 | 5200 ± 520 | 2400 ± 300 | 1000 ± 100 | 400 ± 100 |  |  |  |  | 5840 ± 610 | ROS production 24 h ([24]; 24 h): 221 ± 10 RFU; ROS production 48 h ([24]; 48 h): 280 ± 12 RFU; ROS production 72 h ([24]; 72 h): 318 ± 9 RFU; mean tumour weight in relation to the control group [20]: comparable decrease in mean tumour weight |
| Cc1c(C)c2cccnc2c2ncccc12 [5,6-Me2phen, 5,6-dimethyl-1,10-phenanthroline] |  |  |  |  |  |  |  |  |  |  |  |  |  |  |  |  |  | pKa [1]: 5.6 |
| N[C@H]1CCCC[C@@H]1N.[OH][Pt+2]1([OH])[N]2C=CC=c3ccc4c(c32)[N]1C=CC=4 [PHENSS(IV)(OH)2] | 16000 | 4900 ± 610 | 710 ± 300 | 3000 ± 530 | 310 ± 92 | 3400 ± 2200 | 1300 ± 350 | 1700 ± 200 | 1700 ± 200 | 4300 ± 530 | 800 ± 84 | 1700 ± 350 |  | 144 ± 5 | 273 ± 4 | 303 ± 1 | 3320 ± 880 | fold difference in average GI50 versus corresponding platinum(II) precursor [21]: ~8 fold |
